Source: US20230173075A1, “ENCAPSULATED COMPOSITIONS AND USE OF OCTENYLSUCCINIC ANHYDRIDE STARCH AS EMULSIFYING AGENT” (Kansas State University Research Foundation, priority 2020, published 2023)

Experiments:
[1] = X-ray diffraction (XRD) physical state; type: physicochemical; conditions: Example 2 (CU), fresh
Method: The physical state of the spray-dried emulsions samples was obtained with an X-ray diffractometer (APD 3520, Philips, Netherlands). The instrument was operated at 35 kV, 20 mA with Cu-Kα radiation, a theta-compensating slit, and a diffracted beam monochromator. Data were recorded between the diffraction angles (2θ) of 2° and 35°. Differential scanning calorimetry (DSC) measurement of spray dried drug powder was studied with the TA instrument Q200 V24.4 (New Castle, Del., USA) in a range of −20 to 120° C. under nitrogen flow of 70 mL/min. The spray-dried emulsions powder (3-5 mg) was accurately weighed into DSC stainless steel pan. An empty pan was used as a reference. The heating rate of 10° C./min was used.
The physical state of the spray-dried emulsions samples was obtained with an X-ray diffractometer (APD 3520, Philips, Netherlands). The instrument was operated at 35 kV, 20 mA with Cu-Kα radiation, a theta-compensating slit, and a diffracted beam monochromator. Data were recorded between the diffraction angles (2θ) of 2° and 35°.

[2] = FF in a hard gelatin capsule, launched 1975; cited from earlier work

XRD physical state [1] | Compound | maximum bioavailability [2]
crystalline form | COc1cc(/C=C/C(=O)CC(=O)/C=C/c2ccc(O)c(OC)c2)ccc1O [CU, Curcumin] | 
 | CC(C)OC(=O)C(C)(C)Oc1ccc(C(=O)c2ccc(Cl)cc2)cc1 [FF, Fenofibrate] | 60%
